# Assay results taken from the supplement of paper PMC11208160.
# Test: recombinant barcode read abundance after kanamycin selection (control-corrected) (log10(CPM+1)); higher = more efficient recombination; sequences stand for … in AGTGCAGAGAAAATCGGCCAGTTTTCTCTGCCTGCAGTCCGCATGCCGT…ATTTATGCAGCGGACTGCCTTTCTCCCAAAGTGATAAACCGGACAGTATCATGGACCGGTTTTCCCGGTAATCCGTATTTGCAAGGTTGGTTTCACT; site = the 11-nt target
# In short: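 Values are log10(CPM+1) from a pooled E. coli screen of targets paired with IS621 bridge RNA target-binding loops. Recombination efficiency here means counts per million of recombinant-junction barcodes, averaged and control-corrected. Plates were chloramphenicol/ampicillin LB agar for the control and chloramphenicol/ampicillin/kanamycin with 0.1 mM IPTG, two replicates each.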
row,Sequence,recombinant barcode read abundance (log10)
1,"GAGGCCTGCTGGGTTCTAACCTGTTGCCAGC [GAGGCCTCTTG_LTGcore_GC_RTGcore_GC] (site GAGGCCTCTTG) (LTG core: GC, RTG core: GC)",0.275
2,"GAGGCCTTATGGGTTCTAACCTGTTGCCATA [GAGGCCTCTTG_LTGcore_TA_RTGcore_TA] (site GAGGCCTCTTG) (LTG core: TA, RTG core: TA)",0.172
3,"GAGTCCAAATGGGTTCTAACCTGTTGCGTAG [GAGTCCACTAC_LTGcore_AA_RTGcore_CT] (site GAGTCCACTAC) (LTG core: AA, RTG core: CT)",0.0292
4,"GAGTCCACTTGGGTTCTAACCTGTTGCGTAG [GAGTCCACTAC_LTGcore_CT_RTGcore_CT] (site GAGTCCACTAC) (LTG core: CT, RTG core: CT)",2.39
5,"GAGTCCACTTGGGTTCTAACCTGTTGCGTCC [GAGTCCACTAC_LTGcore_CT_RTGcore_GG] (site GAGTCCACTAC) (LTG core: CT, RTG core: GG)",0.482
6,"GAGTCCACTTGGGTTCTAACCTGTTGCGTGA [GAGTCCACTAC_LTGcore_CT_RTGcore_TC] (site GAGTCCACTAC) (LTG core: CT, RTG core: TC)",0.116
7,"GAGTCCACTTGGGTTCTAACCTGTTGCGTTT [GAGTCCACTAC_LTGcore_CT_RTGcore_AA] (site GAGTCCACTAC) (LTG core: CT, RTG core: AA)",1.07
8,"GAGTCCTATTGGGTTCTAACCTGTTGCCTAG [GAGTCCTCTAG_LTGcore_AT_RTGcore_CT] (site GAGTCCTCTAG) (LTG core: AT, RTG core: CT)",0.0701
9,"GAGTCCTATTGGGTTCTAACCTGTTGCCTAT [GAGTCCTCTAG_LTGcore_AT_RTGcore_AT] (site GAGTCCTCTAG) (LTG core: AT, RTG core: AT)",0.0431
10,"GAGTCCTCGTGGGTTCTAACCTGTTGCCTAG [GAGTCCTCTAG_LTGcore_CG_RTGcore_CT] (site GAGTCCTCTAG) (LTG core: CG, RTG core: CT)",0.274
11,"GAGTCCTCTTGGGTTCTAACCTGTTGCCTAT [GAGTCCTCTAG_LTGcore_CT_RTGcore_AT] (site GAGTCCTCTAG) (LTG core: CT, RTG core: AT)",0.495
12,"GAGTCCTCTTGGGTTCTAACCTGTTGCCTGC [GAGTCCTCTAG_LTGcore_CT_RTGcore_GC] (site GAGTCCTCTAG) (LTG core: CT, RTG core: GC)",0.293
13,"GAGTCCTCTTGGGTTCTAACCTGTTGCCTTT [GAGTCCTCTAG_LTGcore_CT_RTGcore_AA] (site GAGTCCTCTAG) (LTG core: CT, RTG core: AA)",0.398
14,"GCGCGACAATGGGTTCTAACCTGTTGCTTAG [GCGCGACCTAA_LTGcore_AA_RTGcore_CT] (site GCGCGACCTAA) (LTG core: AA, RTG core: CT)",0
15,"GCGCGACACTGGGTTCTAACCTGTTGCTTAG [GCGCGACCTAA_LTGcore_AC_RTGcore_CT] (site GCGCGACCTAA) (LTG core: AC, RTG core: CT)",0.131
16,"GCGCGACCGTGGGTTCTAACCTGTTGCTTAG [GCGCGACCTAA_LTGcore_CG_RTGcore_CT] (site GCGCGACCTAA) (LTG core: CG, RTG core: CT)",0.217
17,"GCGCGACCGTGGGTTCTAACCTGTTGCTTCG [GCGCGACCTAA_LTGcore_CG_RTGcore_CG] (site GCGCGACCTAA) (LTG core: CG, RTG core: CG)",0.282
18,"GCGCGACCTTGGGTTCTAACCTGTTGCTTGG [GCGCGACCTAA_LTGcore_CT_RTGcore_CC] (site GCGCGACCTAA) (LTG core: CT, RTG core: CC)",0
19,"GCGCGACCTTGGGTTCTAACCTGTTGCTTTA [GCGCGACCTAA_LTGcore_CT_RTGcore_TA] (site GCGCGACCTAA) (LTG core: CT, RTG core: TA)",0.265
20,"GCGCGACCTTGGGTTCTAACCTGTTGCTTTG [GCGCGACCTAA_LTGcore_CT_RTGcore_CA] (site GCGCGACCTAA) (LTG core: CT, RTG core: CA)",0.102
21,"GCGCGACGGTGGGTTCTAACCTGTTGCTTCC [GCGCGACCTAA_LTGcore_GG_RTGcore_GG] (site GCGCGACCTAA) (LTG core: GG, RTG core: GG)",0.315
22,"GCGCGACGTTGGGTTCTAACCTGTTGCTTAG [GCGCGACCTAA_LTGcore_GT_RTGcore_CT] (site GCGCGACCTAA) (LTG core: GT, RTG core: CT)",0.0314
23,"GCGCGACTATGGGTTCTAACCTGTTGCTTTA [GCGCGACCTAA_LTGcore_TA_RTGcore_TA] (site GCGCGACCTAA) (LTG core: TA, RTG core: TA)",0.118

row,Sequence,recombinant barcode read abundance (log10)
1,"GCGCGACTCTGGGTTCTAACCTGTTGCTTGA [GCGCGACCTAA_LTGcore_TC_RTGcore_TC] (site GCGCGACCTAA) (LTG core: TC, RTG core: TC)",0.228
2,"GCGGGACAATGGGTTCTAACCTGTTGCCTAG [GCGGGACCTAG_LTGcore_AA_RTGcore_CT] (site GCGGGACCTAG) (LTG core: AA, RTG core: CT)",0.227
3,"GCGGGACACTGGGTTCTAACCTGTTGCCTAG [GCGGGACCTAG_LTGcore_AC_RTGcore_CT] (site GCGGGACCTAG) (LTG core: AC, RTG core: CT)",0.121
4,"GCGGGACATTGGGTTCTAACCTGTTGCCTAT [GCGGGACCTAG_LTGcore_AT_RTGcore_AT] (site GCGGGACCTAG) (LTG core: AT, RTG core: AT)",0.11
5,"GCGGGACCTTGGGTTCTAACCTGTTGCCTCA [GCGGGACCTAG_LTGcore_CT_RTGcore_TG] (site GCGGGACCTAG) (LTG core: CT, RTG core: TG)",0.682
6,"GCGGGACCTTGGGTTCTAACCTGTTGCCTGG [GCGGGACCTAG_LTGcore_CT_RTGcore_CC] (site GCGGGACCTAG) (LTG core: CT, RTG core: CC)",0.0406
7,"GCGGGACGATGGGTTCTAACCTGTTGCCTTC [GCGGGACCTAG_LTGcore_GA_RTGcore_GA] (site GCGGGACCTAG) (LTG core: GA, RTG core: GA)",0.2
8,"GCGGGACGGTGGGTTCTAACCTGTTGCCTAG [GCGGGACCTAG_LTGcore_GG_RTGcore_CT] (site GCGGGACCTAG) (LTG core: GG, RTG core: CT)",0.14
9,"GCGGGACGTTGGGTTCTAACCTGTTGCCTAG [GCGGGACCTAG_LTGcore_GT_RTGcore_CT] (site GCGGGACCTAG) (LTG core: GT, RTG core: CT)",0.0984
10,"GGACACCACTGGGTTCTAACCTGTTGCCTAG [GGACACCCTAG_LTGcore_AC_RTGcore_CT] (site GGACACCCTAG) (LTG core: AC, RTG core: CT)",0.0688
11,"GGACACCCCTGGGTTCTAACCTGTTGCCTGG [GGACACCCTAG_LTGcore_CC_RTGcore_CC] (site GGACACCCTAG) (LTG core: CC, RTG core: CC)",0.128
12,"GGACACCCTTGGGTTCTAACCTGTTGCCTCA [GGACACCCTAG_LTGcore_CT_RTGcore_TG] (site GGACACCCTAG) (LTG core: CT, RTG core: TG)",0.858
13,"GGACACCGATGGGTTCTAACCTGTTGCCTTC [GGACACCCTAG_LTGcore_GA_RTGcore_GA] (site GGACACCCTAG) (LTG core: GA, RTG core: GA)",0.0178
14,"GGACACCGTTGGGTTCTAACCTGTTGCCTAG [GGACACCCTAG_LTGcore_GT_RTGcore_CT] (site GGACACCCTAG) (LTG core: GT, RTG core: CT)",0.32
15,"GGCTCCCAGTGGGTTCTAACCTGTTGCGGCT [GGCTCCCCTCC_LTGcore_AG_RTGcore_AG] (site GGCTCCCCTCC) (LTG core: AG, RTG core: AG)",0.206
16,"GGCTCCCCATGGGTTCTAACCTGTTGCGGTG [GGCTCCCCTCC_LTGcore_CA_RTGcore_CA] (site GGCTCCCCTCC) (LTG core: CA, RTG core: CA)",0.1
17,"GGCTCCCCCTGGGTTCTAACCTGTTGCGGAG [GGCTCCCCTCC_LTGcore_CC_RTGcore_CT] (site GGCTCCCCTCC) (LTG core: CC, RTG core: CT)",0
18,"GGCTCCCCTTGGGTTCTAACCTGTTGCGGCA [GGCTCCCCTCC_LTGcore_CT_RTGcore_TG] (site GGCTCCCCTCC) (LTG core: CT, RTG core: TG)",0.426
19,"GGCTCCCCTTGGGTTCTAACCTGTTGCGGGT [GGCTCCCCTCC_LTGcore_CT_RTGcore_AC] (site GGCTCCCCTCC) (LTG core: CT, RTG core: AC)",0.0344
20,"GGCTCCCTCTGGGTTCTAACCTGTTGCGGGA [GGCTCCCCTCC_LTGcore_TC_RTGcore_TC] (site GGCTCCCCTCC) (LTG core: TC, RTG core: TC)",0.238
21,"GGCTCCCTGTGGGTTCTAACCTGTTGCGGAG [GGCTCCCCTCC_LTGcore_TG_RTGcore_CT] (site GGCTCCCCTCC) (LTG core: TG, RTG core: CT)",0.046
22,"GGGAGCCACTGGGTTCTAACCTGTTGCTGAG [GGGAGCCCTCA_LTGcore_AC_RTGcore_CT] (site GGGAGCCCTCA) (LTG core: AC, RTG core: CT)",0
